Assay results taken from US6964974B2, “2,3-oxidosqualene-lanosterol cyclase inhibitors” (Hoffmann-La Roche Inc., priority 2000, dated 2005).

## CCCN(C)CCCCC1CCN(S(=O)(=O)c2ccc(C(F)(F)F)cc2)CC1 [Example 20.1, Methyl-propyl-{4-[1-(4-trifluoromethyl-benzenesulfonyl)-piperidin-4-yl]-butyl}-amine]
  melting point: 73 to 74.8 °C
